This assay deals with CD4^+/CD25^high Treg. The assay is described as follows: Depletion of regulatory T cells in vivo (FACS of patient PBMC). Conditions: for Treg Depletion (%): single i.v. dose 18 μg/kg. More on the design: species or system human. How it is done:
Four-color FACS analyses were performed using a Becton Dickinson FACSCalibur™. Fluorochrome-conjugated antibodies including anti-CD4 FITC, anti-CD45RO, anti-CD45RA (Caltag, Burlingame, Calif.); anti-CD25 PE (Becton Dickinson, California, CA) as well as isotypic control antibodies (Caltag, Burlingame, Calif.) were used for T-cell staining. Expression of GITR was analyzed by staining T cells with anti-GITR antibody (R&D Systems, Minneapolis, Minn.) followed by secondary goat anti-mouse antibody conjugated to APC. For determination of intracellular CTLA-4 expression, T cells were permeabilized with 0.5% saponin, fixed with 4% paraformaldehyde and then stained with biotinylated anti-CD152 (Becton Dickinson, California, CA) followed by APC-strepavidin (Becton Dickinson, California, CA). A total of 1×10^6 cells were suspended in staining buffer (PBS with 1% FCS, 2 mM EDTA, and 0.1% sodium azide) and incubated for 20 minutes at 4° C. with the antibody. Data were analyzed and presented using CELLQuest™ software. Sorting of CD4^+CD25^neg, CD4^+CD25^int and CD4^+CD25^high T cells was performed with a BD FACSAria™ cell sorter after antibody labeling. For detection of cytokine secretion, isolated CD4^+ T cells were activated for 16 hours in the presence of autologous mRNA-transfected DC. Cytokine secretion was measured using c Th1/Th2 cytokine cytometric bead arrays according to the manufacturer's protocol (BD Biosciences Pharmingen, San Diego, Calif.).
Using these methods, the degree of regulatory T cell depletion efficacy in the four subjects treated on the clinical protocol was determined.
Four-color FACS analyses were performed using the following antibodies: anti-CD4 FITC, anti-CD45RO, anti-CD45RA (Caltag), anti-CD25 PE (Becton Dickinson), anti-GITR (R&D Systems), and isotypic controls (Caltag). Sorting of CD4^+/CD25^neg, CD4^+/CD25^int and CD4^+/CD25^high T cells was performed using a Becton Dickinson FACSAria™ cell sorter after antibody labeling. For intracellular detection of FoxP3, cells were permeabilized with 30 μg/ml digitonin for 45 minutes at 4° C. Subsequently, cells were stained with anti-FoxP3 antibody (Abcam), and R-PE anti-goat IgG in the presence of 10 μg/ml digitonin for 30 minutes at 4° C. Following staining, cells were fixed and analyzed by FACS. For intracellular CTLA-4 detection, T cells were permeabilized, fixed, and stained with biotinylated anti-CD152 (Becton Dickinson) followed by APC-streptavidin (Becton Dickinson). A total of 1×10^6 cells was suspended in staining buffer (PBS with 1% FCS, 2 mM EDTA, and 0.1% sodium azide) and incubated for 20 minutes at 4° C. with the antibody.

Where “and” joins values, the source holds several entries; their conditions need not be identical. Identical values can stand only once.

Here are results for 1 substance from US20060002932A1, “Methods and compositions for enhancement of immunity by in vivo depletion of immunosuppressive cell activity” (priority 2004, published 2006).

denileukin diftitox [DAB389IL-2]: the “Treg Depletion (%)” value (Example 1, per patient, four days after treatment) is 74% and 88% and 37% and 77%; the “Treg Depletion (%)” value (Example 1, per patient, four days after treatment, listed as DAB 389 IL-2) was 74% and 88% and 37% and 77%; the “Treg Depletion (%)” value (Example 2, per patient, 4 days after infusion) was 74% and 72% and 68% and 76% and 57% and 26% and 35%. For the same substance, under “total CD25^pos cells after DAB389IL-2”, the “effect on CD25^neg/int subsets” value was “CD25^neg/int subsets were unaffected”. Also, under “within two months”, the “Treg restored in the peripheral T-cell pool” value is given as “approximately 75%”.
